{
  "source": "patent US20230303613A1",
  "about": "“3′3′ CYCLIC DINUCLEOTIDES WITH AN ALKENYLENE” (Institute of Organic Chemistry and Biochemistry AS CR, v.v.i, priority 2020, published 2023)",
  "key": {"WT STING [1]": {"target": "T1, WT STING (Homo sapiens, UniProt Q86WV6, H232R)", "experiment": "Differential Scanning Fluorimetry with WT STING", "assay_type": "binding", "design": "8xHis (N, cleaved yes); SUMO (N, cleaved yes); made in house; host or cells: E. coli Rosetta-gami B (DE3)", "conditions": "thermal shift vs apoprotein; 150 µM CDN; truncated human WT STING 0.1 mg/ml; read-out: DSF ΔTm WT STING", "text": "(§1) Purified PCR products were cleaved with restriction enzymes BamHI (cat. # R0136S, NEB, Ipswich, USA) and NotI (cat. # R0189S, NEB, Ipswich, USA) and cloned into the pSUMO vector linearized with the identical enzymes.\n(§2) Bacterial pellets were re-suspended in ice-cold lysis buffer containing 50 mmol.1^-1 TrisCl (cat. # T1503, Sigma Aldrich, Czech Republic) pH 8.0, 300 mmol.1^-1 NaCl, 3 mmol.1^-1 β-mercaptoethanol (cat. # M6250, Sigma Aldrich, Czech Republic), 10% glycerol (cat. # G5516, Sigma Aldrich, Czech Republic) and 20 mmol.1^-1 imidazole (cat. # I5513, Sigma Aldrich, Czech Republic) using Dounce homogenizer. DNase I (cat. # D5025, Sigma Aldrich, Czech Republic) and RNase A (cat. # R6513, Sigma Aldrich, Czech Republic) were added (final concentration 50 µg/ml) together with MgCl2 (final concentration 5 mmol.l^-1) to the homogenate and bacteria were lysed using French Press G-M™ High-Pressure Cell Press Homogenizer (1500 psi, 3 cycles). […] The resin was poured into a chromatography column, washed with 50 ml buffer A (50 mmol.1^-1 TrisCl (pH 8.0), 800 mmol.1^-1 NaCl, 3 mmol.1^-1 β-mercaptol; 10% glycerol; 20 mmol.1^-1 imidazole) and 8-His-SUMO tagged STING proteins were eluted with 15 ml buffer A containing 300 mmol.1^-1 imidazole. […] Proteins were concentrated with Amicon® Ultra-15 10 K device (cat. # UFC901008, Merck Millipore, Billerica, USA) and flash frozen in liquid N2.\n(§3) 20 µL solutions of the reaction mixtures were pipetted in triplicates into 96 well optical reaction plates and thermal denaturation of samples were performed on real time PCR cycler (LightCycler® 480 Instrument II - Roche, Basel, Switzerland). The first derivative of the thermal denaturation curves was performed to calculate denaturing temperatures of STING - CDN complexes and STING apoproteins. The thermal shift for each CDN was calculated by subtracting the average denaturing temperature of STING apoprotein from the average denaturing temperature of STING CDN complex."}, "WT STING [2]": {"target": "T1, WT STING", "experiment": "Digitonin assay using 293T wtSTING-FL reporter cells", "assay_type": "cell-based", "conditions": "293T wtSTING-FL cells; 30 minutes in Digitonin buffer, then 5 hours; ISRE firefly luciferase reporter", "text": "Two complementary oligonucleotides of the sequence […] […] […] […] […] The oligonucleotides were mixed in equal molar amounts, hybridized, and cleaved by restriction endonucleases HindIII (cat. #. R0104S, NEB, Ipswich, USA) and BglII (cat. # R0144S, NEB, Ipswich, USA). Ultimately, they were ligated into plasmid pGL4.27 (cat. # E6651, Promega, Madison, USA) linearized with the same enzymes. As result the sequence with four ISRE sites was placed upstream of the minimum promoter of firefly luciferase reporter gene.\nAfter 5 minutes incubation at room temperature (RT), 250 µL of the mixture was added dropwise to the cells in one well. Cells were incubated 36 hours at 37° C. with 5% CO2, and then detached with 0.05% Trypsin and 0.22 g/L EDTA (both cat. # L0941, Biowest, Riverside, USA).\nTransfected cells were seeded onto poly-D-lysine coated six well plates at density 50,000 cells per 1 cm^2 in DMEM medium with high glucose containing 10% heat inactivated FBS, 30 µg/mL blasticidin (cat. # ant-bl-05, InvivoGen, San Diego, USA), 0.06 mg/ml Penicillin G and 0.1 mg/ml Streptomycin Sulfate (both cat. #. L0018, Biowest, Riverside, USA). The medium was replenished every 3 - 4 days until visible colonies of cells resistant to blasticidin were formed.\nBlasticidin resistant cells stably expressing WT STING were further transfected with […] plasmid following the same procedure as described above. […] Homogeneous culture of stably double transfected cells was prepared by limiting dilution of cells in 96 well plates and wells with cells were selected that originated from a single cell.\nThe medium was removed next day and three fold serial dilutions of compounds in Digitonin buffer containing 50 mmol.l^-1 HEPES (cat. # H3375, Sigma Aldrich, Czech Republic) pH 7.0, 100 mmol.1^-1 KCl, 3 mmol.l^-1 MgCl2, 0.1 mmol.l^-1 DTT (cat. # D0632, Sigma Aldrich, Czech Republic), 85 mmol.1^-1 Sucrose (cat. # S7903, Sigma Aldrich, Czech Republic), 0.2% BSA (cat. # A2153, Sigma Aldrich, Czech Republic), 1 mmol.l^-1 ATP (cat. # A1852, Sigma Aldrich, Czech Republic), 0.1 mmol.1^-1 GTP (cat. # G8877, Sigma Aldrich, Czech Republic), and 10 µg/mL Digitonin A (cat. # D141, Sigma Aldrich, Czech Republic) were added to the cells. The buffer was removed after 30 minutes incubation at 37° C. with 5% CO2, the cells were washed once with 100 µl of cultivation medium, and 100 µl of medium was added to each well. The plates with cells were incubated for 5 hours at 37° C. with 5% CO2, 50µl of the medium was removed and 30 µl of ONE-Glo^Tm Luciferase Assay System reagent (cat. # E6120, Promega, Madison, USA) was added to each well. Luminescence was read on Synergy H1 (Biotek, Winooski, USA)."}, "AQ STING (G230A-R293Q)": {"target": "T2, AQ STING (G230A-R293Q) (Homo sapiens, UniProt Q86WV6, G230A/H232R/R293Q)", "T2 construct": "8xHis (N, cleaved yes); SUMO (N, cleaved yes); made in house; host or cells: E. coli Rosetta-gami B (DE3)", "T2 sequence (Q86WV6 140-343 G230A/H232R/R293Q)": "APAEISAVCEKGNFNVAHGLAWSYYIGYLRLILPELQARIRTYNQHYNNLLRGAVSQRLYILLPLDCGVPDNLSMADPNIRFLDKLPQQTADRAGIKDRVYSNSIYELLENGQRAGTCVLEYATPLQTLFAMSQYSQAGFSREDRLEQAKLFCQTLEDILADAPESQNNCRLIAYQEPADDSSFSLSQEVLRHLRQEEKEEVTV", "experiment": "Differential Scanning Fluorimetry with AQ STING", "assay_type": "binding", "conditions": "thermal shift vs apoprotein; 150 µM CDN; truncated human AQ STING 0.1 mg/ml; read-out: DSF ΔTm AQ STING", "text": "as §1, §2, §3"}, "WT STING [3]": {"target": "T1, WT STING", "experiment": "293T WT STING standard reporter assay", "assay_type": "cell-based", "conditions": "293T wtSTING-FL cells; 7 hours with compound, no digitonin; ISRE firefly luciferase reporter"}, "[4]": {"tested_on": "peripheral blood mononuclear cell (PBMC)", "experiment": "Peripheral blood mononuclear cell assay", "assay_type": "cell-based", "conditions": "PBMC, 1h with compound, washed, 15 hour incubation", "method": "Selected compounds were tested in an in vitro peripheral blood mononuclear cell (PBMC) assay. Freshly isolated PBMCs were seeded into U-shaped shaped 96-well plates at desity 500,000 cells per well in 50 µl of RPMI 1640 medium supplemented with 10% heat inactivated FBS. Serially dilluted tested compounds were added to wells in 50 µl of cultivation medium and cell were incubated with compounds for 1h at 37° C. with 5% CO2. Plates with cells were then spun 500 g for 5 minutes and medium was removed. Cells were washed twice with the cell culture medium by the use of centrifugation and gently resuspended in 100 µl medium without compounds. After 15 hour incubation at 37° C. with 5% CO2, the cell culture medium was collected and the levels of interferon-alpha (INF-α), interferon-gamma (INF-γ) and tumor necrosis factor-alpha (TNF-α) were determined with ProcartaPlex Assays (ThermoFisher, Waltham, USA) and MAGPIX System (Merck KGaA, Darmstadt, Germany)."}},
  "note": "Like-named read-outs stand apart in the source and are kept apart here.",
  "data": [
    {"smiles": "Nc1ncnc2c1ncn2[C@@H]1O[C@@H]2/C=C/P(=O)(O)O[C@H]3[C@@H](F)[C@H](n4cnc5c(N)ncnc54)O[C@@H]3COP(=O)(O)O[C@H]2[C@H]1F", "note": "[Compound 53]", "values": [
      {"measurement": "ΔTm at 150 µM", "setting": "WT STING [1]", "value": 6.9, "unit": "°C"},
      {"measurement": "EC50", "setting": "WT STING [2]", "value": 0.03, "unit": "µM"},
      {"measurement": "ΔTm at 150 µM", "setting": "AQ STING (G230A-R293Q)", "value": 11.6, "unit": "°C"},
      {"measurement": "EC50", "setting": "WT STING [3]", "value": 10.1, "unit": "µM"},
      {"measurement": "EC50", "setting": "[4]; IFN-α level in medium, read-out: PBMC EC50 IFN-α", "value": 120, "unit": "µM"},
      {"measurement": "EC50", "setting": "[4]; IFN-γ level in medium, read-out: PBMC EC50 IFN-γ", "value": 36, "unit": "µM"},
      {"measurement": "EC50", "setting": "[4]; TNF-α level in medium, read-out: PBMC EC50 TNF-α", "value": 54, "unit": "µM"}
    ]}
  ]
}
